Measured values taken from patent US20250352577A1, “TUMOR NEOANTIGENIC PEPTIDES AND USES THEREOF” (MNEMO THERAPEUTICS, priority 2021, published 2025).
Entries after “also recorded” stand apart in the source; their conditions may differ.

T1: TE-exon fusion (JET / chimeric) transcript-derived peptide, LUAD (peptide 17) peptide on HLA-A*02:01 (human)
T1 peptide: LLDRFGYHV

T2: TE-exon fusion (JET / chimeric) transcript-derived peptide, LUAD (peptide 53) peptide on HLA-A*02:01 (human)
T2 peptide: MLVTWELAL

B1: TCR number 1 (Table 4bis) (TCR)
alpha TRAV41*01 TRAJ34*01 CDR3: CAVLLDNTDKLIF
beta TRBV6-5*01 TRBJ-2*01 CDR3: CASSRLQGALELFF
B2: TCR number 4 (Table 4bis) (TCR)
alpha TRAV35*01 TRAJ54*01 CDR3: CAGQLAGAQKLVF
beta TRBV13*01 TRBJ2-5*01 CDR3: CASSPSRDGQETQYF

Target: T1, TE-exon fusion (JET / chimeric) …
Test: multimer staining
Conditions: not given

Molecule | binding result
B1 | recognises

Target: T2, TE-exon fusion (JET / chimeric) …
Test: multimer staining
Conditions: not given

Molecule | binding result
B2 | recognises

system: CD8+ T cells from HLA-A2+ healthy donors; test: Priming of naive CTLs (immunogenicity assay) with two-colour tetramer staining; assay type: cell-based, human; conditions: one donor; control co-culture without peptides
Protocol: Priming of naïve CTLs. […] CD14+, CD4+ and CD8+ cells were purified by positive selection using magnetic beads (Miltenyi Biotec). While CD4+ and CD8+ T cells were cryopreserved until the experiment day, CD14+ fraction was cultured in the presence of IL-4 (50 ng/mL) and GM-CSF (10 ng/mL) at 10^6 cells/mL during 5 days to obtain moDCs. After this period of time, the moDCs were maturated with LPS and incubated with synthetic ER-derived peptides at a final concentration of 1 μg/mL for 2 hours.
Tetramer Staining. Cells were resuspended in PBS, stained with Live/Dead Aqua-405 nm (ThermoFisher) during 20 minutes at 4° C. and washed once. After that, cells were resuspended in PBS-1% BSA containing the mix of SA-coupled tetramers and incubated in the dark at room temperature during 20 minutes. Without further washing, surface antibodies were added in PBS-1% BSA and cells were incubated 20 minutes in the dark at 4° C. […] Finally, cells were washed twice and resuspended in FACS buffer for flow cytometry analysis.
Priming assays were thus performed to test the ability of identified peptides to expand specific cytotoxic T cells. […] After loading the moDCs with a mix of synthetic peptides, autologous co-culture was performed with CD4+ and CD8+ T cells. Finally, the expansion of specific CD8+ T cells was analysed by flow cytometry using two-colours tetramer staining. As a control of specific expansion, the co-culture was performed in the absence of peptides.
The same experiment was performed in order to evaluate the response in additional 5 donors. […] As a positive of expansions, mutated Melan-A peptide ([…]) were used.

Molecule | percentage of tetramer positive cells among total CD8+ T cells compared to control
AILPKANTV | increase in at least one magnitude order
FLIVAEILI | increase in at least one magnitude order
LLGETKVYV | increase in at least one magnitude order
RLADHLSFC | increase in at least one magnitude order
RLLHLESFL | increase in at least one magnitude order
YLWTTFFPL | increase in at least one magnitude order

same assay, conditions: total of 6 healthy donors; FIG. 11A

Molecule | specific CD8+ T cell expansion (immunogenicity)
AILPKANTV | specific CD8+ T expansions
AMDGKELSL | specific CD8+ T expansions
FLGTRVTRV | specific CD8+ T expansions
GLLNISHTA | specific CD8+ T expansions
GLPSHVELA | specific CD8+ T expansions; also recorded: immunogenic
ILHSLVTGV | specific CD8+ T expansions
ILSGYGPCV | specific CD8+ T expansions
ILTASITSI | specific CD8+ T expansions
LLDRFGYHV | specific CD8+ T expansions
LLGETKVYV | specific CD8+ T expansions
LLHLESFLV | specific CD8+ T expansions
LLTSWHLYL | specific CD8+ T expansions
MLMKTVWQA | specific CD8+ T expansions
MLVTWELAL | specific CD8+ T expansions
RLADHLSFC | specific CD8+ T expansions; also recorded: immunogenic
RLLHLESFL | specific CD8+ T expansions
RQAPGFHHA | specific CD8+ T expansions
SLMQSGSPV | specific CD8+ T expansions
VLLTNTIWL | specific CD8+ T expansions
VLMWTMAHL | specific CD8+ T expansions
YLPYFLKSL | specific CD8+ T expansions
YLQGLPLPL | specific CD8+ T expansions
YLWTTFFPL | specific CD8+ T expansions

system: CD8+ T cells of LUAD patients; test: Tetramer staining of CD8+ T cells from LUAD patient samples and TILs; assay type: cell-based, human; conditions: TILs expanded with peptide mix + IL-2 or IL-2 only
Protocol: Tetramer Staining. Cells were resuspended in PBS, stained with Live/Dead Aqua-405 nm (ThermoFisher) during 20 minutes at 4° C. and washed once. After that, cells were resuspended in PBS-1% BSA containing the mix of SA-coupled tetramers and incubated in the dark at room temperature during 20 minutes. Without further washing, surface antibodies were added in PBS-1% BSA and cells were incubated 20 minutes in the dark at 4° C. Surface antibodies were a combination of anti-CD3-BV650+ anti-CD8-PECy7 in combination with anti-CCR7-AF700+ anti-CD45RA-BUV395 when required. Finally, cells were washed twice and resuspended in FACS buffer for flow cytometry analysis.
Tissues and Blood samples. […]
Tumor infiltrating lymphocytes (TILs) cultures. […] Cells were feed/split as necessary during 15-20 days and cryopreserve or analyzed for tetramer staining.
In a first set of experiments tumor infiltrating lymphocytes (TILs) expanded with a mix of TE-derived peptides and Il-2, or only with Il-2, were analyzed by tetramer staining. […]
In a second cohort of 5 primary, untreated, LUAD tumor, juxta-tumor, tumor-draining lymph node and blood samples from LUAD cancer HLA-A2+ patients were analyzed. […]

Molecule | tetramer positive CD8+ T cells in TILs of LUAD patients
GLPSHVELA | TILs recognizing
